Source: US10844052B2, “LLS compounds for treatment of cancer” (THE REGENTS OF THE UNIVERSITY OF CALIFORNIA, priority 2016, dated 2020)

Tests used:
SKOV3 = assay: Anti-cancer activity against ovarian cancer cells SKOV3 (cell killing in solution / in vitro cell proliferation); type: cell-based; settings: Homo sapiens, SK-OV-3, ovarian cancer cells SKOV3
Method: Biotinylated LLS2 was synthesized in solution and loaded it onto a streptavidin-coated plate. The biotinylated LLS2 immobilized on the plate killed approximately 21% of SKOV3 ovarian cancer cells at 100 μM loading, 16% at 50 μM and 14% at 25 μM (FIG. 4). The killing effect of the LLS2 compound was also tested in solution. […] In addition, LLS2 can kill pancreatic cancer cell line XPA3, prostate cancer cell line PC3, colon cancer cell line HT29, breast cancer cell line MCF7 and lung cancer cell line A549 (FIG. 4).

[1] = system: 22RV1 prostate cancer cells; assay: Cell viability of prostate cancer 22RV1 cells after 72 hours treatment; type: cell-based; settings: Homo sapiens

| SMILES | IC50 (SKOV3) | viability at 2.5 µM [1] | viability at 5 µM [1] | viability at 10 µM [1] |
| --- | --- | --- | --- | --- |
| COc1ccc(C[C@@H](N)C(=O)NC(CC(N)=O)c2ccc3c(c2)nc(-c2cccc(Cn4ccnc4)c2)n3CCc2ccccn2)cc1 (stereo partly drawn) [LLS1, (2R)—N-(1-(2-(3-((1H-imidazol-1-yl)methyl)phenyl)-1-(2-(pyridin-2-yl)ethyl)-1H-benzo[d]imidazol-5-yl)-3-amino-3-oxopropyl)-2-amino-3-(4-methoxyphenyl)propanamide] | 29.5 µM | – | – | – |
| CC(=O)OCCN(CCOC(C)=O)c1ccc(-c2nc3cc(C(CC(N)=O)NC(=O)[C@@H](N)[C@H](C)O)ccc3n2Cc2ccc(F)c(F)c2)cc1 (stereo partly drawn) [LLS3, ((4-(5-(3-amino-1-((2S,3S)-2-amino-3-hydroxybutanamido)-3-oxopropyl)-1-(3,4-difluorobenzyl)-1H-benzo[d]imidazol-2-yl)phenyl)azanediyl)bis(ethane-2,1-diyl) Diacetate] | 37.6 µM | – | – | – |
| CCCC[C@H](N)C(=O)NC(CC(N)=O)c1ccc2c(c1)nc(-c1nccs1)n2CCN1CCCCC1 (stereo partly drawn) [LLS4, (2S)-2-amino-N-(3-amino-3-oxo-1-(1-(2-(piperidin-1-yl)ethyl)-2-(thiazol-2-yl)-1H-benzo[d]imidazol-5-yl)propyl)hexanamide] | > 50 µM | – | – | – |
| CC(=O)OCCN(CCO)c1ccc(-c2nc3cc(C(CC(N)=O)NC(=O)[C@@H](N)Cc4ccc(Cl)c(Cl)c4)ccc3n2Cc2ccc(F)c(F)c2)cc1 (stereo partly drawn) [LLS5, 2-((4-(5-(3-amino-1-((S)-2-amino-3-(3,4-dichlorophenyl)propanamido)-3-oxopropyl)-1-(3,4-difluorobenzyl)-1H-benzo[d]imidazol-2-yl)phenyl)(2-hydroxyethyl)amino)ethyl Acetate] | 18.7 µM | – | – | – |
| CN(C)CCCOc1ccc(-c2nc3cc(C(CC(N)=O)NCC4CCCCC4)ccc3n2Cc2ccc(OC(F)(F)F)cc2)cc1 (stereo not shown) [LLS89, 3-((cyclohexylmethyl)amino)-3-(2-(4-(3-(dimethylamino)propoxy)phenyl)-1-(4-(trifluoromethoxy)benzyl)-1H-benzo[d]imidazol-5-yl)propanamide] | – | 1% | 0% | 0% |
| CN1CCN(c2ccc(-c3nc4cc(C(CC(N)=O)NCC5CCCCC5)ccc4n3Cc3ccc(OC(F)(F)F)cc3)cc2)CC1 (stereo not shown) [LLS90, 3-((cyclohexylmethyl)amino)-3-(2-(4-(4-methylpiperazin-1-yl)phenyl)-1-(4-(trifluoromethoxy)benzyl)-1H-benzo[d]imidazol-5-yl)propanamide] | – | 1% | 0% | 0% |
| NC(=O)CC(NCC1CCCCC1)c1ccc2c(c1)nc(-c1cccc(OCCN3CCOCC3)c1)n2Cc1ccc(OC(F)(F)F)cc1 (stereo not shown) [LLS91, 3-((cyclohexylmethyl)amino)-3-(2-(3-(2-morpholinoethoxy)phenyl)-1-(4-(trifluoromethoxy)benzyl)-1H-benzo[d]imidazol-5-yl)propanamide] | – | 33% | 7% | 0% |
| NC(=O)CC(NCc1ccc(Cl)c(Cl)c1)c1ccc2c(c1)nc(-c1ccc(N(CCO)CCO)cc1)n2Cc1ccc(C(F)(F)F)cc1 (stereo not shown) [LLS92, 3-(2-(4-(bis(2-hydroxyethyl)amino)phenyl)-1-(4-(trifluoromethyl)benzyl)-1H-benzo[d]imidazol-5-yl)-3-((3,4-dichlorobenzyl)amino)propanamide] | – | 74% | 15% | 1% |
| NC(=O)CC(NCc1ccc(Cl)c(Cl)c1)c1ccc2c(c1)nc(-c1ccc(N(CCO)CCO)cc1)n2Cc1ccc(Br)cc1 (stereo not shown) [LLS93, 3-(2-(4-(bis(2-hydroxyethyl)amino)phenyl)-1-(4-bromobenzyl)-1H-benzo[d]imidazol-5-yl)-3-((3,4-dichlorobenzyl)amino)propanamide] | – | 22% | 2% | 0% |
| NC(=O)CC(NCC1CCCCC1)c1ccc2c(c1)nc(-c1ccc(N3CCOCC3)cc1)n2Cc1ccc(Br)cc1 (stereo not shown) [LLS94, 3-(1-(4-bromobenzyl)-2-(4-morpholinophenyl)-1H-benzo[d]imidazol-5-yl)-3-((cyclohexylmethyl)amino)propanamide] | – | 3% | 0% | 0% |
| CN(C)CCCOc1ccc(-c2nc3cc(C(CC(N)=O)NCC4CCCCC4)ccc3n2Cc2ccc(Br)cc2)cc1 (stereo not shown) [LLS95, 3-(1-(4-bromobenzyl)-2-(4-(3-(dimethylamino)propoxy)phenyl)-1H-benzo[d]imidazol-5-yl)-3-((cyclohexylmethyl)amino)propanamide] | – | 22% | 1% | 0% |
| NC(=O)CC(NCC1CCCCC1)c1ccc2c(c1)nc(-c1ccc(N3CCOCC3)cc1)n2Cc1ccc(C(F)(F)F)c(F)c1 (stereo not shown) [LLS96, 3-((cyclohexylmethyl)amino)-3-(1-(3-fluoro-4-(trifluoromethyl)benzyl)-2-(4-morpholinophenyl)-1H-benzo[d]imidazol-5-yl)propanamide] | – | 45% | 0% | 0% |
| NC(=O)CC(NCc1ccc(Cl)c(Cl)c1)c1ccc2c(c1)nc(-c1ccc(N(CCO)CCO)cc1)n2Cc1ccc(Cl)c(C(F)(F)F)c1 (stereo not shown) [LLS97, 3-(2-(4-(bis(2-hydroxyethyl)amino)phenyl)-1-(4-chloro-3-(trifluoromethyl)benzyl)-1H-benzo[d]imidazol-5-yl)-3-((3,4-dichlorobenzyl)amino)propanamide] | – | 23% | 0% | 0% |
| NC(=O)CC(NCC1CCCCC1)c1ccc2c(c1)nc(-c1ccc(N3CCOCC3)cc1)n2Cc1ccc(Cl)c(C(F)(F)F)c1 (stereo not shown) [LLS98, 3-(1-(4-chloro-3-(trifluoromethyl)benzyl)-2-(4-morpholinophenyl)-1H-benzo[d]imidazol-5-yl)-3-((cyclohexylmethyl)amino)propanamide] | – | 40% | 0% | 0% |
| CN1CCN(c2ccc(-c3nc4cc(C(CC(N)=O)NCC5CCCCC5)ccc4n3Cc3ccc(Cl)c(C(F)(F)F)c3)cc2)CC1 (stereo not shown) [LLS99, 3-(1-(4-chloro-3-(trifluoromethyl)benzyl)-2-(4-(4-methylpiperazin-1-yl)phenyl)-1H-benzo[d]imidazol-5-yl)-3-((cyclohexylmethyl)amino)propanamide] | – | 1% | 0% | 0% |
| NC(=O)CC(NCc1ccc(Cl)c(Cl)c1)c1ccc2c(c1)nc(-c1ccc(N(CCO)CCO)cc1)n2CCc1ccc(OC(F)(F)F)cc1 (stereo not shown) [LLS100] | – | 99% | 28% | 0% |
| NC(=O)CC(NCC1CCCCC1)c1ccc2c(c1)nc(-c1ccc(N(CCO)CCO)cc1)n2Cc1ccc(Cl)c(Cl)c1 (stereo not shown) [LLS101, 3-(2-(4-(bis(2-hydroxyethyl)amino)phenyl)-1-(3,4-dichlorobenzyl)-1H-benzo[d]imidazol-5-yl)-3-((cyclohexylmethyl)amino)propanamide] | – | 20% | 1% | 0% |
| NC(=O)CC(NCc1ccc(Cl)c(Cl)c1)c1ccc2c(c1)nc(-c1ccc(N(CCO)CCO)cc1)n2Cc1cccc2ccccc12 (stereo not shown) [LLS102, 3-(2-(4-(bis(2-hydroxyethyl)amino)phenyl)-1-(naphthalen-1-ylmethyl)-1H-benzo[d]imidazol-5-yl)-3-((3,4-dichlorobenzyl)amino)propanamide] | – | 23% | 0% | 0% |
| NC(=O)CC(NCC1CCCCC1)c1ccc2c(c1)nc(-c1ccc(N3CCOCC3)cc1)n2Cc1cccc2ccccc12 (stereo not shown) [LLS103, 3-((cyclohexylmethyl)amino)-3-(2-(4-morpholinophenyl)-1-(naphthalen-1-ylmethyl)-1H-benzo[d]imidazol-5-yl)propanamide] | – | 1% | 0% | 0% |
| NC(=O)CC(NCc1ccc(Cl)c(Cl)c1)c1ccc2c(c1)nc(-c1ccc(N(CCO)CCO)cc1)n2CC1CCCCC1 (stereo not shown) [LLS104, 3-(2-(4-(bis(2-hydroxyethyl)amino)phenyl)-1-(cyclohexylmethyl)-1H-benzo[d]imidazol-5-yl)-3-((3,4-dichlorobenzyl)amino)propanamide] | – | 82% | 31% | 1% |
| NC(=O)CC(NCc1ccc(Cl)c(Cl)c1)c1ccc2c(c1)nc(-c1ccc(N(CCO)CCO)cc1)n2Cc1ccc2c(c1)OCO2 (stereo not shown) [LLS106, 3-(1-(benzo[d][1,3]dioxol-5-ylmethyl)-2-(4-(bis(2-hydroxyethyl)amino)phenyl)-1H-benzo[d]imidazol-5-yl)-3-((3,4-dichlorobenzyl)amino)propanamide] | – | 30% | 2% | 0% |
| NC(=O)CC(NCC1CCCCC1)c1ccc2c(c1)nc(-c1ccc(N3CCOCC3)cc1)n2Cc1ccc2c(c1)OCO2 (stereo not shown) [LLS107, 3-(1-(benzo[d][1,3]dioxol-5-ylmethyl)-2-(4-morpholinophenyl)-1H-benzo[d]imidazol-5-yl)-3-((cyclohexylmethyl)amino)propanamide] | – | 67% | 4% | 0% |
| NC(=O)CC(NCc1ccc(Cl)c(Cl)c1)c1ccc2c(c1)nc(-c1ccc(N(CCO)CCO)cc1)n2CCc1ccccn1 (stereo not shown) [LLS108, 3-(2-(4-(bis(2-hydroxyethyl)amino)phenyl)-1-(2-(pyridin-2-yl)ethyl)-1H-benzo[d]imidazol-5-yl)-3-((3,4-dichlorobenzyl)amino)propanamide] | – | 89% | 100% | 101% |
| NC(=O)CC(NCC1CCCCC1)c1ccc2c(c1)nc(-c1ccc(N3CCOCC3)cc1)n2CCc1ccccn1 (stereo not shown) [LLS109, 3-((cyclohexylmethyl)amino)-3-(2-(4-morpholinophenyl)-1-(2-(pyridin-2-yl)ethyl)-1H-benzo[d]imidazol-5-yl)propanamide] | – | 98% | 88% | 88% |
